Ten compounds from patent US20100190856A1, “Novel Polyhydroxylated Compounds as Fatty Acid Synthase (FASN) Inhibitors” (UNIVERSIDAD COMPLUTENSE DE MADRID, priority 2007, published 2010) can be followed below.

Series [1] concerns SK-Br3 breast cancer cells. Briefly: MTT cytotoxicity assay, SK-Br3 breast cancer cells. The settings on record: Homo sapiens, SK-BR-3, 48 h, MTT, 48 h, read-out: IC50, growth inhibition, SK-Br3. The format is cell-based, human. The procedure: (§1) MCF-7 and MDA-MB-231 breast cancer cells were obtained from the American Type Culture Collection (ATCC) and were routinely grown in Dulbecco's modified Eagle's medium (DMEM, Gibco) containing 10% fetal bovine serum (FBS, Bio-Whittaker), 1% L-glutamine, 1% sodium pyruvate, 50 U/mL penicillin and 50 μg/mL streptomycin. SK-Br3 breast cancer cells were obtained from Eucellbank (Universidad de Barcelona, Spain) and were passaged in McCoy's 5 A medium containing 10% FBS, 1% L-glutamine, 1% sodium pyruvate, 50 U/mL penicillin and 50 μg/mL streptomycin. Non-malignant fibroblasts N-1 were obtained from Eucellbank (Universidad de Barcelona, Spain) and were passaged in DMEM medium containing 10% FBS, 1% L-glutamine, 1% sodium pyruvate, 50 U/mL penicillin and 50 μg/mL streptomycin. The cells remained free of Mycoplasma and were propagated in adherent culture according to established protocols. Cells were maintained at 37° C. in a humidified atmosphere of 95% air and 5% CO2.
(§2) Drug sensitivity was determined using a standard colorimetric MTT (3-4,5-dimethylthiazol-2-yl-2,5-diphenyltetrazolium bromide) assay. Briefly, cells were plated out at a density of 7×10^3 cells/100 μL/well in 96-well microtitre plates and allowed an overnight period for attachment. Then the medium was removed and fresh medium along with various concentrations of the tested compound were added to the cultures for a period of 48 h. Following the treatment, the cells were fed with drug-free medium (100 μL/well) and 10 μL of MTT solution (5 mg/mL; Sigma, St. Louis, Mo.), and the incubation was prolonged for 3 h at 37° C. After carefully removing the supernatants, the MTT-formazan crystals formed by metabolically viable cells were dissolved in dimethyl sulphoxide (100 μL/well) and the absorbance was measured at 570 nm in a multi-well plate reader (Model Anthos Labtec 2010 1.7 reader).

For series [2], the system named is MDA-MB-231 breast cancer cells. Description: MTT cytotoxicity assay, MDA-MB-231 breast cancer cells. The format is cell-based, human. The settings on record: Homo sapiens, MDA-MB-231 cells, 48 h, read-out: IC50, growth inhibition, MDA-MB-231. The procedure:
as §1, §2

Series [3] concerns Non-malignant fibroblasts N-1. Description: MTT cytotoxicity assay, non-malignant fibroblasts N-1. It counts as cell-based. The settings on record: for IC50: Fibroblast, non-malignant fibroblasts, MTT, 48 h, read-out: IC50, growth inhibition, Fibroblasts; for effects in cell death / morphology changes in non-malignant cells: up to doses three-fold their cytotoxic IC50 value in tumoral cells. The procedure:
as §1, §2

For another series, the target named is T1, FASN (Homo sapiens, UniProt P49327).
T1 construct: endogenous in cells; host or cells: SK-Br3 breast cancer cells
Description: Fatty acid synthase activity assay in SK-Br3 cells (NADPH oxidation, particle-free supernatants). It counts as cell-based. Details: FASN activity, % of control cells / FASN activity reduced to / reduction of FASN activity: concentration or dose not given beside the values. The protocol: FASN activity of compounds a, b, e, f, h, i, k, m and q was assayed in particle-free supernatants by recording spectrophotometrically at 37° C. (Lambda Bio 20, Perkin Elmer, EUA; using UV Kinlab 2.80.02 software) the decrease of A340nm due to the oxidation of NADPH, as we previously described. After 6, 12, 24 h of exposure to the tested compound, the cells were harvested by treatment with trypsin-EDTA solution, pelleted by centrifugation, washed twice and resuspended in cold PBS. The cells were sonicated during 30 min at 4° C. (PSelecta ultrasons) and centrifuged for 15 min at 4° C. to keep supernatants particle-free. A sample was taken to measure the protein content by a BioRad assay (Bio-Rad Laboratories). One-hundred and twenty micrograms of protein were pre-incubated during 15 min at 37° C. in 0.2 M of potassium phosphate buffer, pH 7.0, for temperature equilibration. The sample was then added to the reaction mixture: 200 mM potassium phosphate buffer, pH 7.0, 1 mM EDTA (Sigma), 1 mM dithiothreitol (Sigma), 30 μM acetyl-CoA (Sigma), 0.24 mM NADPH (Sigma), in 0.3 mL reaction volume were monitored at 340 nm for 3 min to measure the background NADPH oxidation. After the addition of 50 μM of malonyl-CoA (Sigma), the reaction was assayed for additional 10 min to determine FASN-dependent oxidation of NADPH. Rates were corrected for the background rate of NADPH oxidation in the presence of acetyl-CoA. FASN activity was expressed in nmol NADPH oxidized min^−1 mg protein^−1.

In series [4] the test system is MCF-7 breast cancer cells. Description: MTT cytotoxicity assay, MCF-7 breast cancer cells. It counts as cell-based, human. The settings on record: Homo sapiens, MCF7, MCF-7 cells, 48 h, read-out: IC50, growth inhibition, MCF-7. The protocol:
as §1, §2

T1 sequence (P49327 whole entry): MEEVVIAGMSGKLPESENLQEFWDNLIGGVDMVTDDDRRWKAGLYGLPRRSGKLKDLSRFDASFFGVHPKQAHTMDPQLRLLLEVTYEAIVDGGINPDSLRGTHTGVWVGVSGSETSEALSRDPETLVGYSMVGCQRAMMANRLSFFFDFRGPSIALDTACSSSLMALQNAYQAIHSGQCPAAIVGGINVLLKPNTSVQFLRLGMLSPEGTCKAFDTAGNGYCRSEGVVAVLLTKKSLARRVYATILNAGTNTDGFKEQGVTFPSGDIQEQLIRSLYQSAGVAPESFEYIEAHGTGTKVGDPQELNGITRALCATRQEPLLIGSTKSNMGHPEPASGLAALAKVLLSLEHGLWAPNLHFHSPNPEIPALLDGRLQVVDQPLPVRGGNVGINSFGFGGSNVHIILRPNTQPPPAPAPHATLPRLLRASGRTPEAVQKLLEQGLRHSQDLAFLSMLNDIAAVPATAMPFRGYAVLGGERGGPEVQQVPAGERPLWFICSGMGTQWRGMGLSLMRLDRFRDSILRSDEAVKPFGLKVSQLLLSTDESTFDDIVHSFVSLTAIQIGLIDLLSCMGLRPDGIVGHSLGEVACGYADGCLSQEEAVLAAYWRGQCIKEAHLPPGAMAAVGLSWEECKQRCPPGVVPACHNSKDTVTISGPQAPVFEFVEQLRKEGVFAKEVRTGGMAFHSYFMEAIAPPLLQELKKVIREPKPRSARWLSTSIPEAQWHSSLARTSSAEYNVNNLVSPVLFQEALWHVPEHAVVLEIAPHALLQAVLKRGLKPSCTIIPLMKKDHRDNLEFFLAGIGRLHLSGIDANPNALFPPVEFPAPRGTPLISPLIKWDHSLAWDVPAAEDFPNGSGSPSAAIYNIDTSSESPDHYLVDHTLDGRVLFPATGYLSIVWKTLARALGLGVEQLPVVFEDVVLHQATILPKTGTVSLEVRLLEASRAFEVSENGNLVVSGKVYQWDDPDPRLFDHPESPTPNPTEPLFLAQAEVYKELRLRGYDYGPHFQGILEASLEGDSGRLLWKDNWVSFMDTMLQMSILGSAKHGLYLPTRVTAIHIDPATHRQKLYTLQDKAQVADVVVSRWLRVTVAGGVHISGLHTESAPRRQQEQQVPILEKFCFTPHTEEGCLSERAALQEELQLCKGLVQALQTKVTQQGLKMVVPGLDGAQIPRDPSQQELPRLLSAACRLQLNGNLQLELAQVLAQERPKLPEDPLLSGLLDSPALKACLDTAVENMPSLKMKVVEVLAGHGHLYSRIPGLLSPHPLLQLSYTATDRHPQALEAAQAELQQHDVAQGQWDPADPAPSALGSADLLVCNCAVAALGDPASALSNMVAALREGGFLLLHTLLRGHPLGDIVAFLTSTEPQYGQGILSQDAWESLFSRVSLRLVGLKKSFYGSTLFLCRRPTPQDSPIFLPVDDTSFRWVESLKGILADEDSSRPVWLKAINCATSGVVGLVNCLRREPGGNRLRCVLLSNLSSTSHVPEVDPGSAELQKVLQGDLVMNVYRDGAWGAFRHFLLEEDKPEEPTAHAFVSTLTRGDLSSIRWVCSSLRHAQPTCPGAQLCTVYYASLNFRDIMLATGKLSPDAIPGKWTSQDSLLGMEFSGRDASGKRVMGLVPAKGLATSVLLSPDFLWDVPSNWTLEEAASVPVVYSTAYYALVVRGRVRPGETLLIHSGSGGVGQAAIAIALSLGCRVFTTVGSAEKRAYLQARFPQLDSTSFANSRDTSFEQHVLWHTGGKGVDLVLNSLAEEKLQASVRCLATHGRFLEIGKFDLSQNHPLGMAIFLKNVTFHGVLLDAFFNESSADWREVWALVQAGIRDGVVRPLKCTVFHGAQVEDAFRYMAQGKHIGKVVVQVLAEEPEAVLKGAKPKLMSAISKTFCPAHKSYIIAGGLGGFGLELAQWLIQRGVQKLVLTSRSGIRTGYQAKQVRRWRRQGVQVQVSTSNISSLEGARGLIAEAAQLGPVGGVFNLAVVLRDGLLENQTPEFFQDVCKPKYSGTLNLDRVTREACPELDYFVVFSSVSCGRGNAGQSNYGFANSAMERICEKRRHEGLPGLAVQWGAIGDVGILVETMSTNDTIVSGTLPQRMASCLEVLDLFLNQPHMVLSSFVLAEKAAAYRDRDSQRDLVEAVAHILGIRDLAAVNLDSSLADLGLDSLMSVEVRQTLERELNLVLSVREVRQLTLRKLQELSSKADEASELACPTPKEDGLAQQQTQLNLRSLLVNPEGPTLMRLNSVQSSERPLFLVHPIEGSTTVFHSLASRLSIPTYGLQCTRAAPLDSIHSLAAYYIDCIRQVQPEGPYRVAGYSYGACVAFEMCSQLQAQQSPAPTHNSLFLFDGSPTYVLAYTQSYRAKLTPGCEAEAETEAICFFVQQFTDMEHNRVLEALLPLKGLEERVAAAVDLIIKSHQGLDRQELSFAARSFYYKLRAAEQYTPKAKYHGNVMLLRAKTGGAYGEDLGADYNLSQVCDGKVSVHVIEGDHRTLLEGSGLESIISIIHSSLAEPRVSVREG

Consider `O=C(Oc1cc(OC(=O)c2ccc(O)c(O)c2)c2ccccc2c1)c1ccc(O)c(O)c1` [h, 1,3-bis[(3,4-dihydroxybenzoyl)oxy]naphthalene], for which the IC50 in series [1] turned out to be 20.7 ± 11.5 µM; in series [2], 19 ± 1.1 µM; in series [3], 105 µM. The “effects in cell death / morphology changes in non-malignant cells” value in series [3] is listed as “No significant effects”. Moreover, at FASN (SK-Br3 cells treated 6, 12 and 24 hours), the “inhibition of FASN activity (in words)” value is listed as “inhibit FASN activity”. The “FASN activity reduced to” value on FASN (SK-Br3 cells, 12 h exposure) stood at 77%.
On to `O=C(Oc1ccc(OC(=O)c2cc(O)c(O)c(O)c2)c2c1CCCC2)c1cc(O)c(O)c(O)c1` [z, 1,4-bis[(3,4,5-trihydroxybenzoyl)oxy]-5,6,7,8-tetrahydronaphthalene], for which the IC50 in series [1] is 41 ± 3 µM; in series [4], 43 ± 10 µM; in series [2], 104 ± 10 µM; in series [3] it was 128 ± 32 µM. The “effects in cell death / morphology changes in non-malignant cells” value in series [3] is recorded as “No significant effects”.
On to `COC(=O)c1cc(OC(=O)c2cc(O)c(O)c(O)c2)c2ccccc2c1OC(=O)c1cccc(O)c1` [dd, methyl 1-[(3-hydroxybenzoyl)oxy]-4-[(3,4,5-trihydroxybenzoyl)oxy]-2-naphthoate], for which the values for the IC50 in series [1] and in series [3] were 15.5 ± 3.5 µM and 39.5 ± 6.4 µM, respectively. Moreover, the “effects in cell death / morphology changes in non-malignant cells” value in series [3] is “No significant effects”.
Regarding `O=C(Oc1cc2c(c(OC(=O)c3cc(O)c(O)c(O)c3)c1)CCCC2)c1cc(O)c(O)c(O)c1` [y, 1,3-bis[(3,4,5-trihydroxybenzoyl)oxy]-5,6,7,8-tetrahydronaphthalene], the IC50 in series [1] was 31 ± 3 µM; in series [4], 81 ± 16 µM; in series [2], 98 ± 11 µM; in series [3], over 150 µM. The “effects in cell death / morphology changes in non-malignant cells” value in series [3] was “No significant effects”.
For `COc1cc(OC(=O)c2cc(O)c(O)c(O)c2)ccc1OC(=O)c1cc(O)c(O)c(O)c1` [d, 2-methoxy-1,4-bis[(3,4,5-trihydroxybenzoyl)oxy]benzene] the same measures were 8.3 ± 1.1 µM, 30 ± 0.1 µM, 28 ± 1 µM, over 50 µM and “No significant effects”.
As to `O=C(Oc1ccc(-c2ccc(OC(=O)c3cc(O)cc(O)c3)cc2)cc1)c1cc(O)cc(O)c1` [s, 4,4′-bis[(3,5-dihydroxybenzoyl)oxy]-1,1′-biphenyl], the IC50 is 7.3 ± 2 µM in series [1], 5.75 ± 2 µM in series [2] and 33 ± 3 µM in series [3]. Besides, in series [3], the “effects in cell death / morphology changes in non-malignant cells” value is given as “No significant effects”.
Consider `COC(=O)c1cc(OC(=O)c2cc(O)c(O)c(O)c2)c2ccccc2c1OC(=O)c1cc(O)c(Br)c(O)c1` [cc, methyl 1-[(4-bromo-3,5-dihydroxybenzoyl)oxy]-4-[(3,4,5-trihydroxybenzoyl)oxy]-2-naphthoate], for which the IC50 in series [1] came to 16.5 ± 4.9 µM. For the same compound, in series [3], the IC50 stood at 91.5 ± 2.1 µM and the “effects in cell death / morphology changes in non-malignant cells” value is “No significant effects”.
As for `O=C(Oc1ccc2cc(OC(=O)c3cc(O)c(O)c(O)c3)ccc2c1)c1cc(O)c(O)c(O)c1` [l, 2,6-bis[(3,4,5-trihydroxybenzoyl)oxy]naphthalene], the IC50 in series [1] is 5.5 ± 1 µM; in series [4], 13 ± 1.8 µM; in series [2], 15.3 ± 1 µM; in series [3] it was over 200 µM. For the same compound, the “effects in cell death / morphology changes in non-malignant cells” value in series [3] is reported as “No significant effects”.
For `O=C(Oc1cc(OC(=O)c2cc(O)c(Br)c(O)c2)c2ccccc2c1)c1cc(O)c(Br)c(O)c1` [w, 1,3-bis[(4-bromo-3,5-dihydroxybenzoyl)oxy]naphthalene], the IC50 in series [1] amounted to 46.7 ± 11.7 µM; in series [3], 79.5 ± 14.8 µM. For the same compound, in series [3], the “effects in cell death / morphology changes in non-malignant cells” value was “No significant effects”.
For `COC(=O)c1cc(OC(=O)c2cc(O)c(O)c(O)c2)c2ccccc2c1OC(=O)c1ccc(O)cc1` [ee, methyl 1-[(4-hydroxybenzoyl)oxy]-4-[(3,4,5-trihydroxybenzoyl)oxy]-2-naphthoate] the same measures were 33 ± 1.4 µM, 67.5 ± 4.9 µM and “No significant effects”.
